Source: ChEMBL document CHEMBL1201862, “PubChem BioAssay data set” (2004)
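In this assay, cells in 96-well plates receive the compound at five concentrations for 48 hours. Endpoints are linearly interpolated between the surrounding concentrations. GI50: concentration for 50% inhibition of growth.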 Calls of active or inactive are those of the source. Cut-off read from the data, not from the text of the source: active = GI50 up to about 1.1 µM and inactive = higher.

How the values were obtained:
Experiment in all cases: growth of human tumour cells (NCI), 48 h
[1] = test system: MCF7
[2] = test system: NCI-H460
[3] = test system: SK-MEL-28
[4] = test system: MDA-MB-435
[5] = test system: HT-29
[6] = test system: RXF 393
[7] = test system: Hs-578T
[8] = test system: CAKI-1
[9] = test system: HCC 2998
[10] = test system: NCI-H522
[11] = test system: 786-0
[12] = test system: MOLT-4
[13] = test system: UO-31
[14] = test system: SF-268
[15] = test system: HOP-92
[16] = test system: T47D
[17] = test system: SN12C
[18] = test system: NCI/ADR-RES
[19] = test system: SK-MEL-2
[20] = test system: ACHN
[21] = test system: RPMI-8226
[22] = test system: MDA-N
[23] = test system: SW-620
[24] = test system: OVCAR-5
[25] = test system: HCT-116
[26] = test system: SNB-75
[27] = test system: BT-549
[28] = test system: SF-539
[29] = test system: COLO 205
[30] = test system: IGROV-1
[31] = test system: HL-60
[32] = test system: A498
[33] = test system: OVCAR-8
[34] = test system: SNB-19
[35] = test system: EKVX
[36] = test system: K562
[37] = test system: OVCAR-4
[38] = test system: LOX IMVI
[39] = test system: KM12
[40] = test system: OVCAR-3
[41] = test system: Malme-3M
[42] = test system: NCI-H23
[43] = test system: U-251
[44] = test system: SK-OV-3
[45] = test system: DU-145
[46] = test system: NCI-H226
[47] = test system: PC-3
[48] = test system: HOP-62
[49] = test system: HCT-15
[50] = test system: UACC-257
[51] = test system: CCRF-CEM
[52] = test system: SF-295
[53] = test system: UACC-62
[54] = test system: SK-MEL-5
[55] = test system: MDA-MB-231
[56] = test system: TK-10
[57] = test system: M14
[58] = test system: A549
[59] = test system: SR

O=S1(=O)c2ccccc2-c2nccc3ccnc1c23
GI50 [1]: 6.4 µM (inactive)
GI50 [2]: 13.1 µM (inactive)
GI50 [3]: 55.6 µM (inactive)
GI50 [4]: 11.9 µM (inactive)
GI50 [5]: 5.58 µM (inactive)
GI50 [6]: 34 µM (inactive)
GI50 [7]: 32.1 µM (inactive)
GI50 [8]: 15.3 µM (inactive)
GI50 [9]: 12.8 µM (inactive)
GI50 [10]: 8.07 µM (inactive)
GI50 [11]: 25.5 µM (inactive)
GI50 [12]: 2.72 µM (inactive)
GI50 [13]: 8.24 µM (inactive)
GI50 [14]: 23.5 µM (inactive)
GI50 [15]: 24.3 µM (inactive)
GI50 [16]: 29.4 µM (inactive)
GI50 [17]: 17.8 µM (inactive)
GI50 [18]: 20.8 µM (inactive)
GI50 [19]: 28.7 µM (inactive)
GI50 [20]: 8.57 µM (inactive)
GI50 [21]: 16.2 µM (inactive)
GI50 [22]: 7.87 µM (inactive)
GI50 [23]: 7.23 µM (inactive)
GI50 [24]: 41.2 µM (inactive)
GI50 [25]: 12.9 µM (inactive)
GI50 [26]: 27.7 µM (inactive)
GI50 [27]: 3.77 µM (inactive)
GI50 [28]: 8.57 µM (inactive)
GI50 [29]: 3.99 µM (inactive)
GI50 [30]: 7.67 µM (inactive)
GI50 [31]: 4.76 µM (inactive)
GI50 [32]: 27.5 µM (inactive)
GI50 [33]: 15 µM (inactive)
GI50 [34]: 23.2 µM (inactive)
GI50 [35]: 15.4 µM (inactive)
GI50 [36]: 4.33 µM (inactive)
GI50 [37]: 37.9 µM (inactive)
GI50 [38]: 12.6 µM (inactive)
GI50 [39]: 22.8 µM (inactive)
GI50 [40]: 10.3 µM (inactive)
GI50 [41]: 21.8 µM (inactive)
GI50 [42]: 14.6 µM (inactive)
GI50 [43]: 28.1 µM (inactive)
GI50 [44]: 56.9 µM (inactive)
GI50 [45]: 11.3 µM (inactive)
GI50 [46]: 43.5 µM (inactive)
GI50 [47]: 7.31 µM (inactive)
GI50 [48]: 40.7 µM (inactive)
GI50 [49]: 7.87 µM
GI50 [50]: 28.5 µM (inactive)
GI50 [51]: 4.02 µM (inactive)
GI50 [52]: 25 µM (inactive)
GI50 [53]: 7.59 µM (inactive)
GI50 [54]: 4.82 µM (inactive)
GI50 [55]: 17.8 µM (inactive)
GI50 [56]: 20.8 µM (inactive)
GI50 [57]: 19.1 µM (inactive)

CC12Cc3cc4c(cc3C1(c1ccc([N+](=O)[O-])cc1)OCCO2)OCO4 (centres undefined)
GI50 [1]: 76.7 µM (inactive)
GI50 [2]: 70.3 µM (inactive)
GI50 [3]: > 100 µM (inactive)
GI50 [4]: > 100 µM (inactive)
GI50 [5]: > 100 µM (inactive)
GI50 [6]: 16.4 µM (inactive)
GI50 [7]: 25.5 µM (inactive)
GI50 [8]: > 100 µM (inactive)
GI50 [9]: > 100 µM (inactive)
GI50 [10]: 91 µM (inactive)
GI50 [11]: 47.9 µM (inactive)
GI50 [12]: > 100 µM (inactive)
GI50 [13]: > 100 µM (inactive)
GI50 [14]: 22.8 µM (inactive)
GI50 [16]: > 100 µM (inactive)
GI50 [17]: 55.6 µM (inactive)
GI50 [18]: 95.5 µM (inactive)
GI50 [19]: 32.2 µM (inactive)
GI50 [20]: 28 µM (inactive)
GI50 [21]: > 100 µM (inactive)
GI50 [22]: > 100 µM (inactive)
GI50 [23]: > 100 µM (inactive)
GI50 [24]: > 100 µM (inactive)
GI50 [25]: 65.3 µM (inactive)
GI50 [27]: 25.5 µM (inactive)
GI50 [28]: 28 µM (inactive)
GI50 [29]: > 100 µM (inactive)
GI50 [58]: > 100 µM (inactive)
GI50 [30]: 23.1 µM (inactive)
GI50 [31]: > 100 µM (inactive)
GI50 [32]: > 100 µM (inactive)
GI50 [33]: 22.4 µM (inactive)
GI50 [34]: 28.6 µM (inactive)
GI50 [35]: 37.2 µM (inactive)
GI50 [36]: > 100 µM (inactive)
GI50 [37]: > 100 µM (inactive)
GI50 [38]: > 100 µM (inactive)
GI50 [39]: > 100 µM (inactive)
GI50 [40]: > 100 µM (inactive)
GI50 [41]: > 100 µM (inactive)
GI50 [42]: 42.9 µM (inactive)
GI50 [43]: 26.9 µM (inactive)
GI50 [59]: > 100 µM (inactive)
GI50 [44]: 16.8 µM (inactive)
GI50 [45]: 87.1 µM (inactive)
GI50 [46]: 26.2 µM (inactive)
GI50 [47]: 97.7 µM (inactive)
GI50 [48]: 18.1 µM (inactive)
GI50 [49]: 44.2 µM
GI50 [50]: > 100 µM (inactive)
GI50 [51]: > 100 µM (inactive)
GI50 [52]: 25.2 µM (inactive)
GI50 [53]: 36.8 µM (inactive)
GI50 [54]: > 100 µM (inactive)
GI50 [55]: 14.9 µM (inactive)
GI50 [56]: 37.8 µM (inactive)
GI50 [57]: > 100 µM (inactive)
